Measurements taken from ChEMBL document CHEMBL5126568, “Determination of Slow-Binding HDAC Inhibitor Potency and Subclass Selectivity” (ACS Med Chem Lett, 2022).

Experiments:
Histone deacetylase 2 [1] = target: T1, Histone deacetylase 2 (Homo sapiens, UniProt Q92769); conditions: time 60.0 min
Histone deacetylase 1 [2] = target: T2, Histone deacetylase 1 (Homo sapiens, UniProt Q13547); assay: Inhibition of full length C-terminal His-tagged HDAC1 (unknown origin) using (Ac-Leu-Gly-Lys(Ac)-AMC as substrate preincubated with enzyme for 1 hrs followed by substrate addition and measured after 30 mins by fluorescence based assay
Histone deacetylase 2 [3] = target: T1, Histone deacetylase 2; assay: Inhibition of full length C-terminal FLAG-tagged HDAC2 (unknown origin) using (Ac-Leu-Gly-Lys(Ac)-AMC as substrate preincubated with enzyme for 30 mins followed by substrate addition and measured after 30 mins by fluorescence based assay
Histone deacetylase 2 [4] = target: T1, Histone deacetylase 2; assay: Inhibition of full length C-terminal FLAG-tagged HDAC2 (unknown origin) assessed as inhibition constant (Ki) using (Ac-Leu-Gly-Lys(Ac)-AMC as substrate measured every 30 sec for 60 mins by fluorescence based assay
Histone deacetylase 1 [5] = target: T2, Histone deacetylase 1; assay: Inhibition of full length C-terminal His-tagged HDAC1 (unknown origin) using (Ac-Leu-Gly-Lys(Ac)-AMC as substrate preincubated with enzyme for 2 hrs followed by substrate addition and measured after 30 mins by fluorescence based assay
Histone deacetylase 1 [6] = target: T2, Histone deacetylase 1; assay: Inhibition of full length C-terminal His-tagged HDAC1 (unknown origin) assessed as rate constant (k-1) of EI complex using (Ac-Leu-Gly-Lys(Ac)-AMC as substrate measured every 30 sec for 60 mins by fluorescence based assay
Histone deacetylase 1 [7] = target: T2, Histone deacetylase 1; assay: Inhibition of full length C-terminal His-tagged HDAC1 (unknown origin) assessed as inhibition constant (Ki) using (Ac-Leu-Gly-Lys(Ac)-AMC as substrate measured every 30 sec for 60 mins by fluorescence based assay
Histone deacetylase 1 [8] = target: T2, Histone deacetylase 1; assay: Inhibition of full length C-terminal His-tagged HDAC1 (unknown origin) assessed as rate constant (k1) of EI complex using (Ac-Leu-Gly-Lys(Ac)-AMC as substrate measured every 30 sec for 60 mins by fluorescence based assay
Histone deacetylase 2 [9] = target: T1, Histone deacetylase 2; assay: Inhibition of full length C-terminal FLAG-tagged HDAC2 (unknown origin) assessed as rate constant (k-1) of EI complex using (Ac-Leu-Gly-Lys(Ac)-AMC as substrate measured every 30 sec for 60 mins by fluorescence based assay
Histone deacetylase 1 [10] = target: T2, Histone deacetylase 1; assay: Inhibition of full length C-terminal His-tagged HDAC1 (unknown origin) using (Ac-Leu-Gly-Lys(Ac)-AMC as substrate preincubated with enzyme for 30 mins followed by substrate addition and measured after 30 mins by fluorescence based assay
Histone deacetylase 2 [11] = target: T1, Histone deacetylase 2; assay: Inhibition of full length C-terminal FLAG-tagged HDAC2 (unknown origin) using (Ac-Leu-Gly-Lys(Ac)-AMC as substrate preincubated with enzyme for 2 hrs followed by substrate addition and measured after 30 mins by fluorescence based assay
Histone deacetylase 2 [12] = target: T1, Histone deacetylase 2; assay: Inhibition of full length C-terminal FLAG-tagged HDAC2 (unknown origin) using (Ac-Leu-Gly-Lys(Ac)-AMC as substrate preincubated with enzyme for 1 hrs followed by substrate addition and measured after 30 mins by fluorescence based assay
Histone deacetylase 2 [13] = target: T1, Histone deacetylase 2; assay: Inhibition of full length C-terminal FLAG-tagged HDAC2 (unknown origin) assessed as rate constant (k1) of EI complex using (Ac-Leu-Gly-Lys(Ac)-AMC as substrate measured every 30 sec for 60 mins by fluorescence based assay
Histone deacetylase 1 [14] = target: T2, Histone deacetylase 1; conditions: time 60.0 min

T2 sequence (Q13547 whole entry): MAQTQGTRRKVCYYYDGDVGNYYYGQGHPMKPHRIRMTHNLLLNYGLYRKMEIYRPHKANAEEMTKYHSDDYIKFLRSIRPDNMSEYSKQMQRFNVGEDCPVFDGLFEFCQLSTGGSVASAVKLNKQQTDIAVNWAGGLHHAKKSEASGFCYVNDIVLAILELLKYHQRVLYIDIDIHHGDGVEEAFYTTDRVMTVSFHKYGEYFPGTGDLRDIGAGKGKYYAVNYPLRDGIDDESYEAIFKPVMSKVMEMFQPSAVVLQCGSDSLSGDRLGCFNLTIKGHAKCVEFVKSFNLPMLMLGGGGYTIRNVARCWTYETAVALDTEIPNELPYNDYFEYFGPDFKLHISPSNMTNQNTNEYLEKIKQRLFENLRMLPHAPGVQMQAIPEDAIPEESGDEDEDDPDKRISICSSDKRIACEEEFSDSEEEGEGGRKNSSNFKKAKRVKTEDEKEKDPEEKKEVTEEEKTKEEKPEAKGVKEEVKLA
T1 sequence (Q92769 whole entry): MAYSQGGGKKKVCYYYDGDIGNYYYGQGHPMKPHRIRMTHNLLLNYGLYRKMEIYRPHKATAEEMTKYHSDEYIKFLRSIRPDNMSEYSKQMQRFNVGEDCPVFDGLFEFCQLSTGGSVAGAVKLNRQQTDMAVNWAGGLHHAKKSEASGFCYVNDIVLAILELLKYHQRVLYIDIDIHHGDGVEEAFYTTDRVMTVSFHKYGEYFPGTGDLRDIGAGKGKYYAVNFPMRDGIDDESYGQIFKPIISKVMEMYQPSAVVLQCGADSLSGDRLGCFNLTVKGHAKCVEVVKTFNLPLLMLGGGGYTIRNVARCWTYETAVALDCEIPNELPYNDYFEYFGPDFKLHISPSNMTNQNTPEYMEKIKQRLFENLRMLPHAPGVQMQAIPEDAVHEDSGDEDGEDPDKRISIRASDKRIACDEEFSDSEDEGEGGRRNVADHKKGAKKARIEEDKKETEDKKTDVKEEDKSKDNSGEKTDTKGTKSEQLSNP

| T1/2 (Histone deacetylase 2 [1]) [h] | IC50 (Histone deacetylase 1 [2]) [nM] | IC50 (Histone deacetylase 2 [3]) [nM] | Ki (Histone deacetylase 2 [4]) [nM] | IC50 (Histone deacetylase 1 [5]) [nM] | K (Histone deacetylase 1 [6]) | Ki (Histone deacetylase 1 [7]) [nM] | K (Histone deacetylase 1 [8]) | K (Histone deacetylase 2 [9]) | IC50 (Histone deacetylase 1 [10]) [nM] | IC50 (Histone deacetylase 2 [11]) [nM] | IC50 (Histone deacetylase 2 [12]) [nM] | K (Histone deacetylase 2 [13]) | T1/2 (Histone deacetylase 1 [14]) [h] | Compound |
| --- | --- | --- | --- | --- | --- | --- | --- | --- | --- | --- | --- | --- | --- | --- |
| > 4 | – | – | – | – | – | – | – | – | – | – | – | – | – | Nc1ccccc1NC(=O)c1ccc(CNC(=O)OCc2cccnc2)cc1 |
| 2.17 | 7.07 | 48 | 103 | 4.89 | 3 10^-3/min | 40 | 7.8 10^-5/nM/min | 5 10^-3/min | 11.3 | 14 | 24.8 | 5.1 10^-5/nM/min | 3.67 | CCCNNC(=O)c1ccc(CNC(=O)/C=C/c2ccccc2)cc1 |
